What was measured:
AsPC-1 cells = experiment: AsPC-1 cell proliferation assay (CellTiter Glo); assay type: cell-based; conditions: Homo sapiens, ASPC1, 144 h, 6 days
How it was run: (§1)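 AsPC-1 cells were seeded at 22,000/well for degradation and 3,500/well for proliferation. Compounds in 1:3 dilutions ([…] to 1.5 nM final) ran 24 h for degradation, read by in-cell immunofluorescence of KRAS G12D normalised to β-actin, and 6 days for proliferation (CellTiter Glo luminescence). DC50/IC50 came from dose-response fits.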

KRAS (G12D) = target: T1, KRAS (G12D) (Homo sapiens, UniProt P01116, G12D); experiment: KRAS (G12D) cellular degradation assay in AsPC-1 cells; assay type: cell-based; conditions: 24 hours, antibody fluorescence (Odyssey CLX), DC50 half-maximal degradation concentration
T1 construct: in-cell western with KRAS G12D antibody after 24 h
How it was run: as §1

T1 sequence (P01116 1-188 isoform P01116-2 G12D): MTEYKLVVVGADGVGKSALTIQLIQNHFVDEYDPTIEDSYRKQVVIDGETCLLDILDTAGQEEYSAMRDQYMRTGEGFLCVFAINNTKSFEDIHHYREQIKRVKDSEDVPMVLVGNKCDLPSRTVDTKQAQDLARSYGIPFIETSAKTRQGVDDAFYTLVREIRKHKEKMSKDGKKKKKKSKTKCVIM

Row | IC50 (AsPC-1 cells) | DC50 (KRAS (G12D)) | SMILES
1 | < 10 nM | < 10 nM | CO[C@@H](C)COc1nc(N2C[C@@H]3C[C@H]2CN3)c2cc(C3CC3)c(-c3c(C)c(F)cc4[nH]ncc34)c(OCc3ccc(-c4cn([C@H](C(=O)N5C[C@H](O)C[C@H]5C(=O)N[C@H](C#Cc5nn(C)c6ccccc56)CO)C(C)C)nn4)cc3)c2n1 [Example 71, (2S,4R)-1-((2S)-2-(4-(4-(((4-((1S,4S)-2,5-diazabicyclo[2.2.1]heptan-2-yl)-6-cyclopropyl-7-(6-fluoro-5-methyl-1H-indazol-4-yl)-2-((S)-2-methoxypropoxy)quinazolin-8-yl)oxy)methyl)phenyl)-1H-1,2,3-triazol-1-yl)-3-methylbutanoyl)-4-hydroxy-N—((R)-1-hydroxy-4-(1-methyl-1H-indazol-3-yl)but-3-yn-2-yl)pyrrolidine-2-carboxamide]
2 | 10 to 100 nM | 10 to 100 nM | CCn1nccc1-c1ccc(CNC(=O)[C@@H]2C[C@@H](O)CN2C(=O)[C@H](C(C)C)n2cc(-c3ccc(COc4c(-c5c(C)c(F)cc6[nH]ncc56)c(C5CC5)cc5c(N6C[C@H]7C[C@@H]6CN7)nc(OC[C@H](C)OC)nc45)cc3)nn2)cc1 (single isomer, unassigned) [Example 7A]
3 | < 10 nM | 10 to 100 nM | CCn1nccc1-c1ccc([C@H](CO)NC(=O)[C@@H]2C[C@@H](O)CN2C(=O)[C@H](C(C)C)n2cc(-c3ccc(COc4c(-c5c(C)c(F)cc6[nH]ncc56)c(C5CC5)cc5c(N6CC7CCC(C6)N7)nc(OC6CCOCC6)nc45)cc3)nn2)cc1 [Example 35, (2S,4R)-1-((2S)-2-(4-(4-(((4-(3,8-diazabicyclo[3.2.1]octan-3-yl)-6-cyclopropyl-7-(6-fluoro-5-methyl-1H-indazol-4-yl)-2-((tetrahydro-2H-pyran-4-yl)oxy)quinazolin-8-yl)oxy)methyl)phenyl)-1H-1,2,3-triazol-1-yl)-3-methylbutanoyl)-N—((R)-1-(4-(1-ethyl-1H-pyrazol-5-yl)phenyl)-2-hydroxyethyl)-4-hydroxypyrrolidine-2-carboxamide]

Row | SMILES | IC50 (AsPC-1 cells) | DC50 (KRAS (G12D))
4 | CCn1nccc1-c1ccc([C@H](CO)NC(=O)[C@@H]2C[C@@H](O)CN2C(=O)[C@H](C(C)C)n2cc(-c3ccc(COc4c(-c5c(C)c(F)cc6[nH]ncc56)c(C5CC5)cc5c(N6C[C@@H]7C[C@H]6CN7)nc(O[C@H]6C[C@H](OC)C6)nc45)cc3)nn2)c2c1CC2 [Example 160, (2S,4R)-1-((2S)-2-(4-(4-(((4-((1S,4S)-2,5-diazabicyclo[2.2.1]heptan-2-yl)-6-cyclopropyl-7-(6-fluoro-5-methyl-1H-indazol-4-yl)-2-((1r,3S)-3-methoxycyclobutoxy)quinazolin-8-yl)oxy)methyl)phenyl)-1H-1,2,3-triazol-1-yl)-3-methylbutanoyl)-N—((R)-1-(5-(1-ethyl-1H-pyrazol-5-yl)bicyclo[4.2.0]octa-1(6),2,4-trien-2-yl)-2-hydroxyethyl)-4-hydroxypyrrolidine-2-carboxamide] | < 10 nM | < 10 nM
5 | CO[C@H]1C[C@H](Oc2nc(N(C)[C@@H]3CCNC3)c3cc(C4CC4)c(-c4c(C)c(F)cc5[nH]ncc45)c(OCc4ccc(-c5cn([C@H](C(=O)N6C[C@H](O)C[C@H]6C(=O)N[C@@H](CO)c6ccc(-c7scnc7C)cc6)C(C)C)nn5)cc4)c3n2)C1 [Example 203, (2S,4R)-1-((2S)-2-(4-(4-(((6-cyclopropyl-7-(6-fluoro-5-methyl-1H-indazol-4-yl)-2-((1r,3R)-3-methoxycyclobutoxy)-4-(methyl((R)-pyrrolidin-3-yl)amino)quinazolin-8-yl)oxy)methyl)phenyl)-1H-1,2,3-triazol-1-yl)-3-methylbutanoyl)-4-hydroxy-N—((R)-2-hydroxy-1-(4-(4-methylthiazol-5-yl)phenyl)ethyl)pyrrolidine-2-carboxamide] | < 10 nM | < 10 nM
